Values of other authors as cited in patent publication US12527745B2, “Pharmaceutical dosage form for an emulsion of simethicone and loperamide” (R.P. SCHERER TECHNOLOGIES, LLC, priority 2018, dated 2026).

Details: single surfactant

Row | Substance | HLB
1 | Polysorbate 80 | 15
2 | sorbitan mono-oleate | 4.3
